Measured values from ChEMBL document CHEMBL5393457, “Combined inhibition of amino acid transporters for inhibiting human plasmacytoid dendritic cell activity during autoimmunity” (2022).
Active and inactive are the calls of the source.

Experiments:
[1] = target: T1, Janus Kinase (JAK) (Homo sapiens) (UniProt P52333+P23458+O60674+P29597); test: Inhibition of JAK in IL-3 and CpG-A-stimulated human plasmacytoid dendritic cells at 0.2 to 20 uM assessed as decrease in IFN-alpha production; format: cell-based; settings: Plasmacytoid dendritic cell, dose 0.2-20 µM
[2] = target: T1, Janus Kinase (JAK) (Homo sapiens); test: Inhibition of JAK in IL-3 and CpG-A-stimulated human plasmacytoid dendritic cells at 0.2 to 20 uM assessed as decrease in TNF production; format: cell-based; settings: Plasmacytoid dendritic cell, dose 0.2-20 µM
[3] = target: Large neutral amino acids transporter small subunit 1 (Homo sapiens) (UniProt Q01650); test: Inhibition of SLC7A5 in CpG-A-stimulated human plasmacytoid dendritic cells at 5 to 10 uM assessed as decrease in kynurenine transport; format: cell-based; settings: Plasmacytoid dendritic cell, dose 5-10 µM
[4] = target: Large neutral amino acids transporter small subunit 1 (Homo sapiens) (UniProt Q01650); test: Inhibition of SLC7A5 in CpG-A-stimulated human plasmacytoid dendritic cells at 5 to 10 uM assessed as decrease in pS6 levels; format: cell-based; settings: Plasmacytoid dendritic cell, dose 5-10 µM
[5] = target: Large neutral amino acids transporter small subunit 1 (Homo sapiens) (UniProt Q01650); test: Inhibition of SLC7A5 in CpG-A-stimulated human plasmacytoid dendritic cells at 5 to 10 uM assessed as decrease in IFN-alpha production; format: cell-based; settings: Plasmacytoid dendritic cell, dose 5-10 µM
[6] = target: Large neutral amino acids transporter small subunit 1 (Homo sapiens) (UniProt Q01650); test: Inhibition of SLC7A5 in CpG-A-stimulated human plasmacytoid dendritic cells at 5 to 10 uM assessed as decrease in TNF production; format: cell-based; settings: Plasmacytoid dendritic cell, dose 5-10 µM
[7] = system: Plasmacytoid dendritic cell; test: Inhibition of SLC7A5/SLC3A2 in IL-3 and CpG-A-stimulated human plasmacytoid dendritic cells at 1 to 2 uM assessed as decrease in IFN-alpha production in presence of 100 uM sulfasalazine; format: cell-based; settings: dose 1-2 µM
[8] = system: Plasmacytoid dendritic cell; test: Inhibition of SLC7A5/SLC3A2 in IL-3 and CpG-A-stimulated human plasmacytoid dendritic cells at 1 to 2 uM assessed as decrease in TNF production in presence of 100 uM sulfasalazine; format: cell-based; settings: dose 1-2 µM
[9] = target: T2, Cystine/glutamate transporter (Homo sapiens) (UniProt Q9UPY5); test: Inhibition of XCT in CpG-A-activated human plasmacytoid dendritic cells at 200 uM assessed as decrease in IFN-alpha production; format: cell-based; settings: Plasmacytoid dendritic cell
T2 sequence (whole entry): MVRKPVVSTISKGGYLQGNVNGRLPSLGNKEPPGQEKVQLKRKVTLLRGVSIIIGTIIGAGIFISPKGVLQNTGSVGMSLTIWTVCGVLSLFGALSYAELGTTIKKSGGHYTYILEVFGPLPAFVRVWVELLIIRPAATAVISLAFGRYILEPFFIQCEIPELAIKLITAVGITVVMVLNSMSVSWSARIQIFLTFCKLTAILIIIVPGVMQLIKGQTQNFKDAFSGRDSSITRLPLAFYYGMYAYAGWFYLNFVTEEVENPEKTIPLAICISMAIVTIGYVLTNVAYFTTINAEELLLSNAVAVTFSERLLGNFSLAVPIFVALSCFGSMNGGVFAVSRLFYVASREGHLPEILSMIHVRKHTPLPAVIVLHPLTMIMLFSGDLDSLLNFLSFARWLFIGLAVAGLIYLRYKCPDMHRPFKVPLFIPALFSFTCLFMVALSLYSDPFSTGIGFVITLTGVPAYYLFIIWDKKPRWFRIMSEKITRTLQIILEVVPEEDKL

[10] = target: T2, Cystine/glutamate transporter (Homo sapiens); test: Inhibition of XCT in CpG-A-activated human plasmacytoid dendritic cells at 200 uM assessed as decrease in TNF production; format: cell-based; settings: Plasmacytoid dendritic cell
[11] = target: T2, Cystine/glutamate transporter (Homo sapiens); test: Inhibition of XCT in CpG-A-activated human plasmacytoid dendritic cells at 200 uM assessed as decrease in S6 phosphorylation; format: cell-based; settings: Plasmacytoid dendritic cell
[12] = target: T2, Cystine/glutamate transporter (Homo sapiens); test: Inhibition of XCT in CpG-A-activated human plasmacytoid dendritic cells at 200 uM assessed as decrease in kynurenine uptake; format: cell-based; settings: Plasmacytoid dendritic cell
[13] = target: T2, Cystine/glutamate transporter (Homo sapiens); test: Inhibition of XCT in CpG-A-activated human plasmacytoid dendritic cells at 200 uM assessed as decrease in ENPP2 expression; format: cell-based; settings: Plasmacytoid dendritic cell
[14] = target: T2, Cystine/glutamate transporter (Homo sapiens); test: Inhibition of XCT in CpG-A-activated human plasmacytoid dendritic cells at 200 uM assessed as decrease in MYO1E expression; format: cell-based; settings: Plasmacytoid dendritic cell
[15] = target: T2, Cystine/glutamate transporter (Homo sapiens); test: Inhibition of XCT in CpG-A-activated human plasmacytoid dendritic cells at 100 uM assessed as decrease in IFN-alpha production in presence of 25 to 100 uM baricitinib; format: cell-based; settings: Plasmacytoid dendritic cell
[16] = target: Tyrosine-protein kinase JAK2 (Homo sapiens) (UniProt O60674); test: Inhibition of JAK2 in CpG-A-activated human plasmacytoid dendritic cells at 100 uM assessed as decrease in TNF production in presence of 25 to 100 uM baricitinib; format: cell-based; settings: Plasmacytoid dendritic cell
[17] = target: T2, Cystine/glutamate transporter (Homo sapiens); test: Inhibition of XCT in IL-3 CpG-A-activated human plasma at 200 uM assessed as decrease in pDC activation
[18] = target: T2, Cystine/glutamate transporter (Homo sapiens); test: Inhibition of XCT in IL-3 CpG-A-activated human plasma at 100 uM assessed as decrease in pDC activation in presence of 0.1 uM baricitinib
[19] = target: T2, Cystine/glutamate transporter (Homo sapiens); test: Inhibition of XCT in IL-3 and CpG-A-stimulated human plasmacytoid dendritic cells at 100 uM assessed as decrease in IFN-alpha production in presence of 1 to 2 uM AC-4-130; format: cell-based; settings: Plasmacytoid dendritic cell
[20] = target: T2, Cystine/glutamate transporter (Homo sapiens); test: Inhibition of XCT in IL-3 and CpG-A-stimulated human plasmacytoid dendritic cells at 100 uM assessed as decrease in TNF production in presence of 1 to 2 uM AC-4-130; format: cell-based; settings: Plasmacytoid dendritic cell
[21] = target: T2, Cystine/glutamate transporter (Homo sapiens); test: Inhibition of XCT in IL-3 and CpG-A-stimulated human plasmacytoid dendritic cells at 100 uM assessed as decrease in IFN-alpha production in presence of 1 to 2 uM pimozide; format: cell-based; settings: Plasmacytoid dendritic cell
[22] = target: T2, Cystine/glutamate transporter (Homo sapiens); test: Inhibition of XCT in IL-3 and CpG-A-stimulated human plasmacytoid dendritic cells at 100 uM assessed as decrease in TNF production in presence of 1 to 2 uM pimozide; format: cell-based; settings: Plasmacytoid dendritic cell
[23] = target: T2, Cystine/glutamate transporter (Homo sapiens); test: Inhibition of XCT in IL-3 and CpG-A-stimulated human plasmacytoid dendritic cells at 100 uM assessed as decrease in IFN-alpha production in presence of 10 to 50 nM IQDMA; format: cell-based; settings: Plasmacytoid dendritic cell
[24] = target: T2, Cystine/glutamate transporter (Homo sapiens); test: Inhibition of XCT in IL-3 and CpG-A-stimulated human plasmacytoid dendritic cells at 100 uM assessed as decrease in TNF production in presence of 10 to 50 nM IQDMA; format: cell-based; settings: Plasmacytoid dendritic cell
[25] = target: T2, Cystine/glutamate transporter (Homo sapiens); test: Inhibition of XCT in IL-3 and CpG-A-stimulated human plasmacytoid dendritic cells at 100 uM assessed as decrease in IFN-alpha production in presence of 1 to 2 uM JPH203; format: cell-based; settings: Plasmacytoid dendritic cell
[26] = target: T2, Cystine/glutamate transporter (Homo sapiens); test: Inhibition of XCT in IL-3 and CpG-A-stimulated human plasmacytoid dendritic cells at 100 uM assessed as decrease in TNF production in presence of 1 to 2 uM JPH203; format: cell-based; settings: Plasmacytoid dendritic cell
[27] = target: T2, Cystine/glutamate transporter (Homo sapiens); test: Inhibition of XCT in IL-3 and CpG-A-stimulated human plasmacytoid dendritic cells assessed as decrease in IFN-alpha production in presence of mavrilimumab; format: cell-based; settings: Plasmacytoid dendritic cell
[28] = target: T2, Cystine/glutamate transporter (Homo sapiens); test: Inhibition of XCT in IL-3 and CpG-A-stimulated human plasmacytoid dendritic cells assessed as decrease in TNF production in presence of mavrilimumab; format: cell-based; settings: Plasmacytoid dendritic cell
[29] = target: T2, Cystine/glutamate transporter (Homo sapiens); test: Inhibition of XCT in IL-3 and CpG-A-stimulated human plasmacytoid dendritic cells at 100 uM assessed as decrease in IFN-alpha production in presence of 0.2 to 5 ug/ml IGN523; format: cell-based; settings: Plasmacytoid dendritic cell
[30] = target: T2, Cystine/glutamate transporter (Homo sapiens); test: Inhibition of XCT in IL-3 and CpG-A-stimulated human plasmacytoid dendritic cells at 100 uM assessed as decrease in TNF production in presence of 0.2 to 5 ug/ml IGN523; format: cell-based; settings: Plasmacytoid dendritic cell

Measured: inhibition

Sequence of Large neutral amino acids transporter small subunit 1 (Homo sapiens) (Q01650 whole entry): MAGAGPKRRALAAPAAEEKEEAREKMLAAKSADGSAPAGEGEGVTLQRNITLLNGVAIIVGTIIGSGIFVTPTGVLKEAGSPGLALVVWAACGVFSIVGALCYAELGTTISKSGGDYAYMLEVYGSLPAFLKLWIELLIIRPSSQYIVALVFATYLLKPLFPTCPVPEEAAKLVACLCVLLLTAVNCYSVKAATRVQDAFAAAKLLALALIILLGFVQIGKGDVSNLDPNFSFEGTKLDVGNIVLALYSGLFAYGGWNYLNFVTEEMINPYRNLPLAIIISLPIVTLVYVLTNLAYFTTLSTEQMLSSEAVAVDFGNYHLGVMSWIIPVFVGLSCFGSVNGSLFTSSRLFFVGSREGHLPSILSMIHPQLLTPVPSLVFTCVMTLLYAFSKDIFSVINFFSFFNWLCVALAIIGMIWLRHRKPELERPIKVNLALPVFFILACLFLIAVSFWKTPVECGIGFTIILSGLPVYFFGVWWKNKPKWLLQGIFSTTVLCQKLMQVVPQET
Sequence of Tyrosine-protein kinase JAK2 (Homo sapiens) (O60674 whole entry): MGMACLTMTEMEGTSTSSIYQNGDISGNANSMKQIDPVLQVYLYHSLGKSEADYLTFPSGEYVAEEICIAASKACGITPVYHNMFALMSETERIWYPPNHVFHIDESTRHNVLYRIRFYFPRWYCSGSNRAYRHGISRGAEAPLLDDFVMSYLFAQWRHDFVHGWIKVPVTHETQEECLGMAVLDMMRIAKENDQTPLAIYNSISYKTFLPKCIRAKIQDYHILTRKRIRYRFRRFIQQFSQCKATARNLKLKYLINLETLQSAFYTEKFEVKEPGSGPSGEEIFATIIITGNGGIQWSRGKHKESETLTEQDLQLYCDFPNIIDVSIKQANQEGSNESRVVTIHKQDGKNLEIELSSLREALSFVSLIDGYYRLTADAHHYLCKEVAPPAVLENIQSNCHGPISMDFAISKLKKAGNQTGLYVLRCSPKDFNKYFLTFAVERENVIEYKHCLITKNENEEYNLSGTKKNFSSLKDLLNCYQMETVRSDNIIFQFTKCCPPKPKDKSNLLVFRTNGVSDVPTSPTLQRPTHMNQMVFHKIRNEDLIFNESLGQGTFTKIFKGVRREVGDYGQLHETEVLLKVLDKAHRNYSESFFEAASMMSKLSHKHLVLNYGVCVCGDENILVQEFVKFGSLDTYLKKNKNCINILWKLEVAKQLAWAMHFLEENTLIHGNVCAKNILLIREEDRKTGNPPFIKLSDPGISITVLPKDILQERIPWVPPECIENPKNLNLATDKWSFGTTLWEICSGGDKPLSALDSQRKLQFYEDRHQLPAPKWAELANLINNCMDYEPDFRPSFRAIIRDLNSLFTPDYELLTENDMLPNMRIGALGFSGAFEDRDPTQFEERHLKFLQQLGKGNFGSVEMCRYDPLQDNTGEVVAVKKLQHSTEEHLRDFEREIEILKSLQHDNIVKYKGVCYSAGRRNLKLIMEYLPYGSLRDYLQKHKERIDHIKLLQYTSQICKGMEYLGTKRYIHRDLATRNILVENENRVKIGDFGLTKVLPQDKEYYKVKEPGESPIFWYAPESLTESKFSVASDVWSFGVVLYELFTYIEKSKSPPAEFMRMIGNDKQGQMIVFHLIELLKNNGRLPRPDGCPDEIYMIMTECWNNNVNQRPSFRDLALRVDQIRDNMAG

CN(Cc1cnc2nc(N)nc(N)c2n1)c1ccc(C(=O)N[C@@H](CCC(=O)O)C(=O)O)cc1
active: [1] | [2]

Nc1cc(COc2c(Cl)cc(C[C@H](N)C(=O)O)cc2Cl)c2oc(-c3ccccc3)nc2c1
active: [3] | [4] | [5] | [6] | [7] | [8]

O=C(O)c1cc(/N=N/c2ccc(S(=O)(=O)Nc3ccccn3)cc2)ccc1O
active: [9] | [10] | [11] | [12] | [13] | [14] | [15] | [16] | [17] | [18] | [19] | [20] | [21] | [22] | [23] | [24] | [25] | [26] | [27] | [28] | [29] | [30]
